The test system of the assay is FD-MSCs. The assay can be described thus: Beige adipogenic precursor markers in FD-MSCs (flow cytometry, immunostaining, qPCR). In kind it is cell-based, human. The note with it: SB pretreatment 2 days. As to the method: All assays were performed between 7 and 15 passages. For osteocyte differentiation, mature MSCs were grown in 24 well culture plates to 100% confluency in MesenCult-ACF and induced to differentiate in OsteoLife Complete Osteogenesis Medium (Lifeline Cell Technology) for 21 days prior to staining with Lifeline Alizarin Red Stain to visualize calcium deposition. For chondrocyte differentiation. For beige adipogenic precursor generation, cells were grown in 24 well culture plates to 90% confluence and treated with 5 uM SB413542 (Sigma) and 10 nM human IL-4 (Peprotech) for 2 days. For beige adipogenic induction, adipogenic precursors are differentiated for 3 days with adipogenic medium consisting of T3 (2 nM), insulin (170 nM), rosiglitazone (1 μM), SB413542 (5 uM), IBMX (0.5 mM), dexamethasone (5 μM) and indomethacin (125 μM) in EGM-2 medium (Lonza) supplemented with the BulletKit minus FGF2 (modified from^33). Thereafter, cells are maintained in adipogenic medium without IBMX, dexamethasone and indomethacin. The medium was changed every 3 days and adipocytes were fully differentiated by 9-12 days as determined by lipid accumulation and peak expression of UCP1.
Cell Isolation, Expansion and Differentiation of Interscapular Brown Adipose Tissue Preadipocytes • 1. Prior to adipose cell isolation, warm DMEM, FBS and cell wash buffer to room temperature. • 2. In a laminar flow cabinet for cell culture, place 5 g of adipose tissue on a 100×20 mm dish. Suspend tissue in 1 mL of Adipose Tissue Dissociation Kit enzyme digest cocktail and finely mince with a razorblade. • 3. Transfer cell suspension slurry to a 5 mL polystyrene round bottom tube and add an additional 1.5 mL of enzyme digest cocktail to tube. • 4. Incubate tube at 37° C. on a rotating nutator for 30 minutes. During incubation period, briefly vortex sample for 5 s in 10-minute intervals. • 5. Transfer cells to a 15 mL tube and add 5 mL of DMEM. Filter cell suspension through a 100 μm strainer into a new 15 mL tube and centrifuge at 300 g for 5 minutes to form a pellet. • 6. Remove supernatant and leave behind […] of DMEM. […]

`NC(=O)c1ccc(-c2nc(-c3ccc4c(c3)OCO4)c(-c3ccccn3)[nH]2)cc1` [SB, SB431542]: the “cell surface expression of PDGFRα and MSCA1” value was “increased”; the “nuclear accumulation of EBF2” value was “significantly increased”.
